# Test results published in patent publication US20170190671A1, “BIS(ARYL)CATECHOL DERIVATIVES AS HERBICIDES” (E I DU PONT DE NEMOURS AND COMPANY, priority 2014, published 2017).
# Experiments:
# Assay in all cases: Test E preemergence
# Assay type in all cases: in vivo
# Settings in all cases: scale 0 to 100
# [1] = tested on: palmer pigweed (Amaranthus palmeri)
# Text: (§1) Seeds of plant species selected from corn (Zea mays), soybean (Glycine max), velvetleaf (Abutilon theophrasti), cocklebur (common cocklebur, Xanthium strumarium), lambsquarters (Chenopodium album), wild poinsettia (Euphorbia heterophylla), palmer pigweed (Amaranthus palmeri), waterhemp (common waterhemp, Amaranthus rudis), surinam grass (Brachiaria decumbens), large (Lg) crabgrass (Digitaria sanguinalis), Brazilian crabgrass (Digitaria horizontalis), fall panicum (Panicum dichotomiflorum), giant foxtail (Setaria faberii), green foxtail (Setaria viridis), goosegrass (Eleusine indica), johnsongrass (Sorghum halepense), ragweed (common ragweed, Ambrosia elatior), barnyardgrass (Echinochloa crus-galli), sandbur (southern sandbur, Cenchrus echinatus), arrowleaf sida (Sida rhombifolia), Italian ryegrass (Lolium multiflorum), dayflower (Virginia (VA) dayflower, Commelina virginica), field bindweed (Convolvulus arvensis), morningglory (Ipomoea coccinea), nightshade (eastern black nightshade, Solanum ptycanthum), kochia (Kochia scoparia), yellow nutsedge (Cyperus esculentus), horseweed (Conyza canadensis), and hairy beggarticks (Bidens pilosa), were planted into a silt loam soil and treated preemergence with test chemicals formulated in a non-phytotoxic solvent mixture which included a surfactant.
# (§2) At the same time, plants from these crop and weed species and also waterhemp_RES1, (ALS & Triazine resistant common waterhemp, Amaranthus rudis), and waterhemp_RES2, (ALS & HPPD resistant common waterhemp, Amaranthus rudis) were planted in pots containing Redi-Earth® planting medium (Scotts Company, 14111 Scottslawn Road, Marysville, Ohio 43041) comprising spaghnum peat moss, vermiculite, wetting agent and starter nutrients were treated with postemergence applications of test chemicals formulated in the same manner. Plants ranged in height from 2 to 18 cm for postemergence treatments (1- to 4-leaf stage). Treated plants and controls were maintained in a greenhouse for 14 to 21 days, after which time all species were compared to controls and visually evaluated. Plant response ratings, summarized in Table E, are based on a scale of 0 to 100 where 0 is no effect and 100 is complete control. A dash (-) response means no test result.
# [2] = tested on: green foxtail (Setaria viridis)
# Text: as §1, §2
# [3] = tested on: yellow nutsedge (Cyperus esculentus)
# Text: as §1, §2
# [4] = tested on: giant foxtail (Setaria faberii)
# Text: as §1, §2
# [5] = tested on: field bindweed (Convolvulus arvensis)
# Text: as §1, §2
# [6] = tested on: lambsquarters (Chenopodium album)
# Text: as §1, §2
# [7] = tested on: arrowleaf sida (Sida rhombifolia)
# Text: as §1, §2
# [8] = tested on: goosegrass (Eleusine indica)
# Text: as §1, §2
# [9] = tested on: morningglory (Ipomoea coccinea)
# Text: as §1, §2
# [10] = tested on: barnyardgrass (Echinochloa crus-galli)
# Text: as §1, §2
# [11] = tested on: hairy beggarticks (Bidens pilosa)
# Text: as §1, §2
# [12] = tested on: Brazilian crabgrass (Digitaria horizontalis)
# Text: as §1, §2
# [13] = tested on: nightshade (eastern black nightshade, Solanum ptycanthum)
# Text: as §1, §2
# [14] = tested on: dayflower (Virginia (VA) dayflower, Commelina virginica)
# Text: as §1, §2
# [15] = tested on: fall panicum (Panicum dichotomiflorum)
# Text: as §1, §2
# kochia (Kochia scoparia) = tested on: kochia (Kochia scoparia)
# Text: as §1, §2
# corn (Zea mays) = tested on: corn (Zea mays)
# Text: as §1, §2
# [16] = tested on: sandbur (southern sandbur, Cenchrus echinatus)
# Text: as §1, §2
# soybean (Glycine max) = tested on: soybean (Glycine max)
# Text: as §1, §2
# [17] = tested on: Italian ryegrass (Lolium multiflorum)
# Text: as §1, §2
# [18] = tested on: large (Lg) crabgrass (Digitaria sanguinalis)
# Text: as §1, §2
smiles,measurement,setting,value
"Clc1cnc(Oc2cccc(Br)c2Oc2ncc(Cl)cn2)nc1 [Compound 19, 2,2′-[[3-bromo-1,2-phenylene]bis(oxy)]bis[5-chloropyrimidine]]","Plant response rating, Pigweed, Palmer",[1]; 16 g ai/ha,0
same,"Plant response rating, Pigweed, Palmer",[1]; 31 g ai/ha,70
same,"Plant response rating, Pigweed, Palmer",[1]; 62 g ai/ha,100
same,"Plant response rating, Pigweed, Palmer",[1]; 125 g ai/ha,100
same,"Plant response rating, Foxtail, Green",[2]; 16 g ai/ha,0
same,"Plant response rating, Foxtail, Green",[2]; 31 g ai/ha,60
same,"Plant response rating, Foxtail, Green",[2]; 62 g ai/ha,98
same,"Plant response rating, Foxtail, Green",[2]; 125 g ai/ha,100
same,"Plant response rating, Nutsedge, Yellow",[3]; 16 g ai/ha,0
same,"Plant response rating, Nutsedge, Yellow",[3]; 31 g ai/ha,0
same,"Plant response rating, Nutsedge, Yellow",[3]; 62 g ai/ha,0
same,"Plant response rating, Nutsedge, Yellow",[3]; 125 g ai/ha,20
same,"Plant response rating, Foxtail, Giant",[4]; 16 g ai/ha,0
same,"Plant response rating, Foxtail, Giant",[4]; 31 g ai/ha,95
same,"Plant response rating, Foxtail, Giant",[4]; 62 g ai/ha,100
same,"Plant response rating, Foxtail, Giant",[4]; 125 g ai/ha,100
same,"Plant response rating, Field Bindweed",[5]; 16 g ai/ha,0
same,"Plant response rating, Field Bindweed",[5]; 31 g ai/ha,0
same,"Plant response rating, Field Bindweed",[5]; 62 g ai/ha,0
same,"Plant response rating, Field Bindweed",[5]; 125 g ai/ha,10
same,"Plant response rating, Lambsquarters",[6]; 16 g ai/ha,60
same,"Plant response rating, Lambsquarters",[6]; 31 g ai/ha,100
same,"Plant response rating, Lambsquarters",[6]; 62 g ai/ha,100
same,"Plant response rating, Lambsquarters",[6]; 125 g ai/ha,100
same,"Plant response rating, Arrowleaf Sida",[7]; 16 g ai/ha,65
same,"Plant response rating, Arrowleaf Sida",[7]; 31 g ai/ha,40
same,"Plant response rating, Arrowleaf Sida",[7]; 62 g ai/ha,100
same,"Plant response rating, Arrowleaf Sida",[7]; 125 g ai/ha,100
same,"Plant response rating, Goosegrass",[8]; 16 g ai/ha,5
same,"Plant response rating, Goosegrass",[8]; 31 g ai/ha,75
same,"Plant response rating, Goosegrass",[8]; 62 g ai/ha,90
same,"Plant response rating, Goosegrass",[8]; 125 g ai/ha,98
same,"Plant response rating, Morningglory",[9]; 16 g ai/ha,0
same,"Plant response rating, Morningglory",[9]; 31 g ai/ha,0
same,"Plant response rating, Morningglory",[9]; 62 g ai/ha,5
same,"Plant response rating, Morningglory",[9]; 125 g ai/ha,65
same,"Plant response rating, Barnyardgrass",[10]; 16 g ai/ha,0
same,"Plant response rating, Barnyardgrass",[10]; 31 g ai/ha,0
same,"Plant response rating, Barnyardgrass",[10]; 62 g ai/ha,20
same,"Plant response rating, Barnyardgrass",[10]; 125 g ai/ha,70
same,"Plant response rating, Beggarticks",[11]; 16 g ai/ha,0
same,"Plant response rating, Beggarticks",[11]; 31 g ai/ha,0
same,"Plant response rating, Beggarticks",[11]; 62 g ai/ha,0
same,"Plant response rating, Beggarticks",[11]; 125 g ai/ha,0
same,"Plant response rating, Crabgrass, Brazil",[12]; 16 g ai/ha,0
same,"Plant response rating, Crabgrass, Brazil",[12]; 31 g ai/ha,40
same,"Plant response rating, Crabgrass, Brazil",[12]; 62 g ai/ha,100
same,"Plant response rating, Crabgrass, Brazil",[12]; 125 g ai/ha,100
same,"Plant response rating, Nightshade",[13]; 16 g ai/ha,0
same,"Plant response rating, Nightshade",[13]; 31 g ai/ha,0
same,"Plant response rating, Nightshade",[13]; 62 g ai/ha,65
same,"Plant response rating, Nightshade",[13]; 125 g ai/ha,98
same,"Plant response rating, Dayflower, VA",[14]; 16 g ai/ha,0
same,"Plant response rating, Dayflower, VA",[14]; 31 g ai/ha,0
same,"Plant response rating, Dayflower, VA",[14]; 62 g ai/ha,5
same,"Plant response rating, Dayflower, VA",[14]; 125 g ai/ha,10
same,"Plant response rating, Panicum, Fall",[15]; 16 g ai/ha,100
same,"Plant response rating, Panicum, Fall",[15]; 31 g ai/ha,85
same,"Plant response rating, Panicum, Fall",[15]; 62 g ai/ha,98
same,"Plant response rating, Panicum, Fall",[15]; 125 g ai/ha,100
same,"Plant response rating, Kochia",kochia (Kochia scoparia); 16 g ai/ha,35
same,"Plant response rating, Kochia",kochia (Kochia scoparia); 31 g ai/ha,75
same,"Plant response rating, Kochia",kochia (Kochia scoparia); 62 g ai/ha,98
same,"Plant response rating, Kochia",kochia (Kochia scoparia); 125 g ai/ha,100
same,"Plant response rating, Corn",corn (Zea mays); 16 g ai/ha,0
same,"Plant response rating, Corn",corn (Zea mays); 31 g ai/ha,0
same,"Plant response rating, Corn",corn (Zea mays); 62 g ai/ha,20
same,"Plant response rating, Corn",corn (Zea mays); 125 g ai/ha,50
same,"Plant response rating, Sandbur",[16]; 16 g ai/ha,0
same,"Plant response rating, Sandbur",[16]; 31 g ai/ha,0
same,"Plant response rating, Sandbur",[16]; 62 g ai/ha,0
same,"Plant response rating, Sandbur",[16]; 125 g ai/ha,20
same,"Plant response rating, Soybean",soybean (Glycine max); 16 g ai/ha,0
same,"Plant response rating, Soybean",soybean (Glycine max); 31 g ai/ha,0
same,"Plant response rating, Soybean",soybean (Glycine max); 62 g ai/ha,0
same,"Plant response rating, Soybean",soybean (Glycine max); 125 g ai/ha,50
same,"Plant response rating, Ryegrass, Italian",[17]; 16 g ai/ha,0
same,"Plant response rating, Ryegrass, Italian",[17]; 31 g ai/ha,0
same,"Plant response rating, Ryegrass, Italian",[17]; 62 g ai/ha,65
same,"Plant response rating, Ryegrass, Italian",[17]; 125 g ai/ha,70
same,"Plant response rating, Crabgrass, Large",[18]; 16 g ai/ha,20
same,"Plant response rating, Crabgrass, Large",[18]; 31 g ai/ha,80
same,"Plant response rating, Crabgrass, Large",[18]; 62 g ai/ha,100
same,"Plant response rating, Crabgrass, Large",[18]; 125 g ai/ha,100
